Results published in US20260297129A1, “PEPTIDES AS SELECTIVE IL-23 RECEPTOR INHIBITORS” (SANOFI, priority 2023, published 2026).
Values after ≈ are worked out from the molar mass of the structure shown. Like-named read-outs stand apart in the source and are kept apart here. Numbered stars: 1 amine (or outer) side, 2 acyl side, 3 side chain; on linkers, the order of the positions; unused ones are H or OH. Bridge positions count the residues as written; N and C are the ends. Square brackets hold non-standard residues; d marks the D form. Peptide text beside a SMILES is read from it. * marks the point of attachment. Lys(Me,(CH2)4NMe(CH2)4CO) = CN(CCCCC(=O)[*:3])CCCCN(C)CCCC[C@H](N[*:1])C(=O)[*:2]; Trp(7-Me) = Cc1cccc2c(C[C@H](N)C(=O)O)c[nH]c12; Trp(1-Me) = Cn1cc(C[C@H](N)C(=O)O)c2ccccc21; NH(2-(3-pyridyl)ethyl) = c1cncc(CCN*)c1; Sebacoyl = O=C(CCCCCCCCC(=O)[*:2])[*:1]; αMeLys(Me2) = CN(C)CCCC[C@](C)(N)C(=O)O; 2Nal = N[C@@H](Cc1ccc2ccccc2c1)C(=O)O; 3Pal = N[C@@H](Cc1cccnc1)C(=O)O; Lys(Me) = CNCCCC[C@H](N)C(=O)O; Aun = NCCCCCCCCCCC(=O)O; Thp = NC1(C(=O)O)CCOCC1; Me2NCH2CH2 = CN(C)CC*; Aib = CC(C)(N)C(=O)O; Sar = CNCC(=O)O

Experiments:
[1] = test system: IL-23 induced STAT3 signaling (IL-23 receptor) in HEK-Blue IL-23 cells; experiment: Inhibition of IL-23 induced STAT3 signaling in HEK-Blue IL-23 cells, SEAP reporter (Table 9); assay type: cell-based; conditions: human IL23 0.25 ng/ml, overnight, read-out: Inhibition of IL-23 induced pSTAT3 (IC50 nM)
Procedure, shortened: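 HEK-Blue IL-23 reporter cells (10,000/well) pre-incubated 60 min at 37 °C with serially diluted peptides, then stimulated overnight with human IL-23 at 0.25 ng/ml final. SEAP in supernatant read by QUANTI-Blue, 45 min room temperature, OD 620–655 nm; dose-response curve fitting.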

[2] = Protease stability in simulated gastric fluids (FaSSGF) (Table 7); assay type: in vitro ADME; conditions: fassgf with pepsin, 60 min, 37° C., read-out: Remaining percentage of peptide compound, FaSSGF 60 (min)
Procedure: (§1) Studies were carried out in simulated intestinal fluid (SIF) and simulated gastric fluid (SGF) to evaluate gastric stability of the peptide compounds disclosed herein.
For clarification, the term “Pepsin-SGF” refers to a solution of simulated gastric fluid containing pepsin whereas “SGF media” refers to a solution of simulated gastric fluid without pepsin. Pepsin-SGF was prepared by dissolving 320 mg Pepsin (Merck Millipore) in 100 mL SGF media concentrate (PROSENSE).
(§2) Peptide compounds were first dissolved at 1 mM stock concentration in 0.01 HCl (+/−10% of DMSO) and were than diluted further with water to a stock concentration of 20 μM. Final peptide concentration in the incubation was 1 μM.
(§3) To 76 μL of the Pepsin-SGF buffer, 4 μL of the 20 μM peptide stock solution was added and incubated at 37° C. At each timepoint (0, 60, 120 and 240 minutes) the reaction was quenched with addition of 80 μL Ethanol (0,1% HCOOH). The samples were centrifuged for 20 minutes and an aliquot of the supernatant 100 μL were transferred to a LoBind-MTP plate and analyzed by LCMS/MS. The peak area response was calculated at each time point for each test compound. As internal reference, the peak area response of the same test compound at T0 was calculated. The percentage remaining at each timepoint was calculated based on the peak area response ratio of the test compound at T0. Time 0 was set to 100%, and all later timepoints were calculated relative to time 0.
as §3, with “(0.1%” for “(0,1%”

[3] = Solubility of peptide compounds in buffer formulations (Table 5); assay type: physicochemical; conditions: target 1 mg/ml
Procedure, shortened: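 Peptide solids, dried from DMSO stock, were taken up at 1 mg/mL in 50 mM HCl pH 1.2, or 50 mM phosphate pH 6.5 or pH 7.4. After 2 h gentle agitation and filtration (0.45 μm), solubility was determined by UHPLC-UV peak area against a DMSO standard of known concentration.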

[4] = Protease stability in simulated intestinal fluids (FaSSIF) (Table 7); assay type: in vitro ADME; conditions: fassif with pancreatin, 37° C.; for remaining at 1 h, 1 µM: 60 min, read-out: Remaining percentage of peptide compound, FaSSIF 60 (min); for remaining at 2 h, 1 µM: 120 min, read-out: Remaining percentage of peptide compound, FaSSIF 120 (min); for remaining at 4 h, 1 µM: 240 min, read-out: Remaining percentage of peptide compound, FaSSIF 240 (min)
Procedure: as §1
Similarly, the term “Pancreatin-SIF” refers to a solution of simulated intestinal fluid containing pancreatin whereas “SIF-media” refers to a solution of simulated intestinal fluid without pancreatin. Pancreatin-SIF was prepared by dissolving 1 mg Pancreatin (MP Biomedicals) in 10 mL SIF media concentrate (PROSENSE).
as §2
as §3, with “(0.1%” for “(0,1%”

[5] = Chemical stability (relative purity loss) of peptide compounds in buffer formulations (Table 6); assay type: physicochemical; conditions: 2° C. and 37° C.
Procedure: Purity of a peptide batch was determined through UHPLC/MS method A prior to chemical stability measurement.
For stability assessment, the target concentration was 0.5 mg pure compound/ml. Therefore, solutions from solid samples were prepared in a buffer system at a concentration of 0.5 mg/mL compound. The solid samples were obtained by drying down aliquots of a freshly prepared acetonitrile stock solution using a THERMO SPEEDVAC vacuum centrifuge. The dry down time was 3 hours.
The following buffer systems were applied: • Solubility buffer system A): 50 mM HCl pH 1.2+Acetonitrile (3:1). • Solubility buffer system B): 50 mM phosphate buffer pH 6.5+Acetonitrile (3:1). • Solubility buffer system C): 50 mM phosphate buffer pH 7.4+Acetonitrile (3:1). • Prepared solutions were stored for 24 hours at 2° C. and 37° C.
After this time course, the samples were centrifuged for 15 min at 2500 RCF to create a 1:5 dilution of the supernatant. Then 2 μl of the dilution were analyzed with UHPLC-UV applying method A.
The chemical stability was rated through the relative loss of purity calculated by the equation: […]

[6] = Buffer pH 1.1 (head; method: 50 mM HCl pH 1.2), 2 h agitation, read-out: Solubility, Buffer pH 1.1
[7] = aqueous buffer, 50 mM phosphate buffer pH 6.5, 2 h agitation, read-out: Solubility, Buffer pH 6.5
[8] = aqueous buffer, 50 mM phosphate buffer pH 7.4, 2 h agitation, read-out: Solubility, Buffer pH 7.4
[9] = 50 mM phosphate buffer pH 6.5 + acetonitrile (3:1), read-out: Chemical stability (relative purity loss), Buffer pH 6.5
[10] = 50 mM phosphate buffer pH 7.4 + acetonitrile (3:1), read-out: Chemical stability (relative purity loss), Buffer pH 7.4
[11] = 50 mm hcl + acetonitrile, Buffer pH 1.1 (head; method: 50 mM HCl pH 1.2 + acetonitrile 3:1), read-out: Chemical stability (relative purity loss), Buffer pH 1.1

Compound | remaining at 1 h, 1 µM [2] [%] | solubility at 2 h [3, 6] [µg/mL] | solubility at 2 h [3, 7] [µg/mL] | solubility at 2 h [3, 8] [µg/mL] | remaining at 1 h, 1 µM [4] [%] | remaining at 2 h, 1 µM [4] [%] | remaining at 4 h, 1 µM [4] [%] | degraded at 24 h [5, 9] [%] | degraded at 24 h [5, 10] [%] | degraded at 24 h [5, 11] [%] | IC50 [1] [nM]
Cc1cccc2c(C[C@@H]3NC(=O)CCCCCCCCCCNC(=O)CC[C@@H](C(=O)N[C@@H](CC(N)=O)C(=O)N[C@@H](Cc4cccnc4)C(=O)N(C)CC(N)=O)NC(=O)[C@](C)(CCCCN(C)C)NC(=O)[C@H](Cc4ccc5ccccc5c4)NC(=O)[C@H](Cc4ccc(OCCN(C)C)cc4)NC(=O)C4(CCOCC4)NC(=O)[C@H](CCC(N)=O)NC3=O)c[nH]c12 [compound 20] ([Aun][Trp(7-Me)]Q[Thp]Y(Me2NCH2CH2)[2Nal][αMeLys(Me2)]EN[3Pal][Sar]-NH2; lactam N-8) | 91 | ≥ 850 | < 10 | < 10 | 96 | 96 | 97 | 0 | 0.1 | 4.9 | 0.23
CN(C)CCOc1ccc(C[C@@H]2NC(=O)C3(CCOCC3)NC(=O)[C@H](CCC(N)=O)NC(=O)[C@H](Cc3cn(C)c4ccccc34)NC(=O)CCCCN(C)CCCCN(C)CCCC[C@@H](C(=O)NCC(=O)N[C@@H](Cc3cccnc3)C(=O)N(C)CC(N)=O)NC(=O)C(C)(C)NC(=O)[C@H](Cc3ccc4ccccc4c3)NC2=O)cc1 [compound 30] ([Trp(1-Me)]Q[Thp]Y(Me2NCH2CH2)[2Nal][Aib][Lys(Me,(CH2)4NMe(CH2)4CO)]G[3Pal][Sar]-NH2; lactam N-7) | 98 | ≥ 940 | ≥ 890 | 840 (≈ 533 µM) | 88 | 87 | 82 | 0 | 0 | 6.2 | 3.86
CN(C)CCOc1ccc(C[C@@H]2NC(=O)C3(CCOCC3)NC(=O)[C@H](CCC(N)=O)NC(=O)[C@H](Cc3cn(C)c4ccccc34)NC(=O)CCCCN(C)CCCCN(C)CCCC[C@@H](C(=O)N[C@@H](CO)C(=O)N[C@@H](Cc3cccnc3)C(=O)N(C)CC(N)=O)NC(=O)C(C)(C)NC(=O)[C@H](Cc3ccc4ccccc4c3)NC2=O)cc1 [compound 40] ([Trp(1-Me)]Q[Thp]Y(Me2NCH2CH2)[2Nal][Aib][Lys(Me,(CH2)4NMe(CH2)4CO)]S[3Pal][Sar]-NH2; lactam N-7) | 100 | ≥ 980 | ≥ 1070 | ≥ 1060 | 97 | 93 | 92 | 0 | 0 | 5.7 | 2.26
Cc1cccc2c(C[C@@H]3NC(=O)CCCCCCCCC(=O)N(C)CCCC[C@@H](C(=O)NCC(=O)NCCc4cccnc4)NC(=O)C(C)(C)NC(=O)[C@H](Cc4ccc5ccccc5c4)NC(=O)[C@H](Cc4ccc(OCCN(C)C)cc4)NC(=O)C4(CCOCC4)NC(=O)[C@H](CC(C)C)NC3=O)c[nH]c12 [compound 17] ([Trp(7-Me)]L[Thp]Y(Me2NCH2CH2)[2Nal][Aib][Lys(Me)]G-{NH(2-(3-pyridyl)ethyl)}; linker N-7 via Sebacoyl) | 13 | ≥ 1410 | < 10 | < 10 | 95 | 96 | 95 | 0 | 0 | 0 | 14.3

Continued, in another order:

remaining at 1 h, 1 µM [2] [%] | solubility at 2 h [3, 6] [µg/mL] | solubility at 2 h [3, 7] [µg/mL] | solubility at 2 h [3, 8] [µg/mL] | remaining at 1 h, 1 µM [4] [%] | remaining at 2 h, 1 µM [4] [%] | remaining at 4 h, 1 µM [4] [%] | degraded at 24 h [5, 9] [%] | degraded at 24 h [5, 10] [%] | degraded at 24 h [5, 11] [%] | Compound | IC50 [1] [nM]
100 | ≥ 960 | ≥ 1050 | ≥ 890 | 88 | 85 | 85 | 0 | 0 | 6 | Cc1cccc2c(C[C@@H]3NC(=O)CCCCN(C)CCCCN(C)CCCC[C@@H](C(=O)N[C@@H](CC(N)=O)C(=O)N[C@@H](Cc4cccnc4)C(=O)N(C)CC(N)=O)NC(=O)C(C)(C)NC(=O)[C@H](Cc4ccc5ccccc5c4)NC(=O)[C@H](Cc4ccc(OCCN(C)C)cc4)NC(=O)C4(CCOCC4)NC(=O)[C@H](CCC(N)=O)NC3=O)c[nH]c12 [compound 46] ([Trp(7-Me)]Q[Thp]Y(Me2NCH2CH2)[2Nal][Aib][Lys(Me,(CH2)4NMe(CH2)4CO)]N[3Pal][Sar]-NH2; lactam N-7) | 0.72
84 | ≥ 1180 | 340 (≈ 200 µM) | 130 (≈ 76.4 µM) | 91 | 92 | 91 | 0 | 0.1 | 3.4 | CC(=O)NCCCC[C@@H]1NC(=O)[C@H](Cc2c[nH]c3c(C)cccc23)NC(=O)CCCCCCCCCCNC(=O)CC[C@@H](C(=O)N[C@@H](CC(N)=O)C(=O)N[C@@H](Cc2cccnc2)C(=O)N(C)CC(N)=O)NC(=O)C2(CCOCC2)NC(=O)[C@H](Cc2ccc3ccccc3c2)NC(=O)[C@H](Cc2ccc(OCCN(C)C)cc2)NC(=O)C2(CCOCC2)NC1=O [compound 50] ([Aun][Trp(7-Me)]K(Ac)[Thp]Y(Me2NCH2CH2)[2Nal][Thp]EN[3Pal][Sar]-NH2; lactam N-8) | 0.19
